One may read the ED50 as the dose at which the effect has come halfway, by size or by number of responders.

The values that follow come from patent EP0073845B1, “Imidazopyridine-spiro-piperidine compounds” (Yoshitomi Pharmaceutical Industries, Ltd., priority 1981, dated 1983).

In data set [1] the test system is apomorphine-induced vomiting. Description: Effect on apomorphine-induced vomiting. The conditions noted are these: Canis lupus familiaris, po, 2 hours prior to apomorphine hydrochloride (0.1 mg/kg, s.c.); incidence of vomiting checked for 2 hours; beagle dogs. It counts as in vivo. On the procedure: (1) Effect on apomorphine-induced vomiting
The test was performed according to the method described by M. Nakanishi et al: in "Arzneimittel-Forschung", vol. 21, 391 ff (1971).
Groups of 5-10 beagle dogs of both sexes each were used. The test compound was administered orally 2 hours prior to the treatment with apomorphine hydrochloride (0.1 mg/kg, s.c.). The incidence of vomiting was checked for 2 hours, and the ED50 (50% effective dose) was determined.

The nature of data set [2]: Cataleptogenic activity. The conditions noted are these: rat, in vivo, ip; Wistar female rats; from total points of the maximum appearance of catatonia. The procedure: (2) Cataleptogenic Activity
The test was performed according to the method described by W. Wirth et al. in "Archives Internationales de Pharmacodynamie et de Therapie", vol, 115, 1 ff (1958).
Groups of 5 Wistar female rats each were used. […] The ED50 was determined from total points of the maximum appearance of catatonia.

As to `Cl.Cl.O.O=C1NC2CCCCN2C12CCN(CCCN1c3ccccc3CCc3ccccc31)CC2` (centres unmarked) [A, 1'-[3-(10,11-dihydro-5H-dibenz[b,f]azepin-5-yl)propyl]-1,2,3,5,6,7,8,8a-octahydro-2-oxo-imidazo[1,2-a]pyridine-3-spiro-4'-piperidine dihydrochloride monohydrate], the ED50 in data set [1] is 2.5 mg/kg; in data set [2], > 50 mg/kg.

With `Cl.Cl.O.O=C1NC2CCCCN2C12CCN(CCCN1c3ccccc3CCc3ccc(Cl)cc31)CC2` (centres unmarked) [B, 1'-[3-(3-chloro-10,11-dihydro-5H-dibenz[b,f]azepin-5-yl)propyl]-1,2,3,5,6,7,8,8a-octahydro-2-oxo-imidazo[1,2-a]pyridine-3-spiro-4'-piperidine dihydrochloride monohydrate], the ED50 in data set [1] was 0.5 mg/kg; in data set [2] it was > 50 mg/kg.

As for `Cl.Cl.O.O=C1N=C2CCCCN2C12CCN(CCCN1c3ccccc3CCc3ccccc31)CC2` [C, 1'-[3-(10,11-dihydro-5H-dibenz[b,f]azepin-5-yl)propyl]-2,3,5,6,7,8-hexahydro-2-oxo-imidazo[1,2-a]pyridine-3-spiro-4'-piperidine dihydrochloride monohydrate], the ED50 in data set [1] was 2 mg/kg; in data set [2] it was > 50 mg/kg.

Consider `CN(C)CCCN1c2ccccc2Sc2ccc(Cl)cc21` [Chlorpromazine, reference compound], for which the ED50 was determined as 5.1 mg/kg in data set [1] and 12 mg/kg in data set [2].
